# According to US8809344B2, “Compounds, compositions, and methods for control of hepatitis C viral infections” (priority 2008, dated 2014):
# Assays:
# [1] = system: chimeric APV112 HCV (genotype 2a with genotype 1b NS4B amino acids 53 to 218); test: HCV APV112 viral infectivity assay in Huh7.5 cells, 3′NTR RNA by realtime quantitative PCR; format: cell-based, hepatitis C virus; conditions: for Log change in 3′NTR copies relative to 1.0% DMSO (GAPDH normalized): APV112, 48 hours
# Description: (§1) Inhibition of HCV infectivity by AP0080978 and its analogs (AP0080977, non-active enantiomer; AP0089652, racemate; and AP0080935, an aromatic, non-optically active analog of AP0080978) was assayed by exposing cells with infectious chimeric HCV virions in the presence of the compounds. This was accomplished by use of an HCV cell culture system essentially as described in Pietschmann, T. et al. (2006) 103(19): 7408-13, Proc. Natl. Acad. Sci. USA; and elsewhere. Two viral constructs were utilized to characterize inhibition of viral infectivity (FIG. 4). Construct APV23 (FL-J6/JFH) is a full-length, chimeric, genotype 2a HCV genome containing the HCV core through the NS2 first transmembrane domain coding region from the J6 HCV isolate linked to the second NS2 transmembrane domain NS3 through NS5B coding region of HCV strain JFH-1, as shown in FIG. 4 (i.e. an HCV chimera with the “C3 Junction” described in Pietschmann, T. et al. (2006) Proc. Natl. Acad. Sci. USA 103(19): 7408-13; see page 7409 and FIG. 2A of Pietschmann, T. et al.). Construct APV112 was generated by replacing nucleotides encoding amino acids 53 to 218 of the NS4B gene of the APV23 sequence with a corresponding sequence from a genotype 1b (Con1 strain).
# (§2) Huh7.5 cells were plated at a density of 20,000 cells per well in 96-well plates. The cells were exposed to the chimeric HCV virions at a multiplicity of infection of 0.01. Potential inhibitory compounds were added simultaneously with the chimeric virus. Cells were incubated for 48 hours and then the levels of HCV 3′NTR and GAPDH RNA were quantified by realtime quantitative PCR. Data were analyzed by the comparative Ct method with delta-delta Ct determined relative to 1.0% DMSO. Results in FIGS. 5 and 6 are depicted as log change in 3′NTR copies relative to 1.0% DMSO.
# [2] = system: chimeric APV23 (FL-J6/JFH) genotype 2a HCV; test: HCV APV23 viral infectivity assay in Huh7.5 cells, 3′NTR RNA by realtime quantitative PCR; format: cell-based, hepatitis C virus; conditions: FIG. 6; genotype 2a NS4B coding region
# Description: as §1, §2
# Huh7.5 cells = test: ATP viability assay (CellTiter-Glo) in replicon-harboring Huh7.5 cells; format: cell-based, human; conditions: 24 hours post-treatment; Huh7.5 cells harboring transient genotype 1b replicon
# Description: Inhibition of HCV replication by AP0089652, AP0080978 (enantiomer 2 from Example 1) and AP0080977 (enantiomer 1 from Example 1) were assayed by exposing cells harboring an HCV genotype 1b replicons to the compounds and quantitating HCV replicon levels following exposure. The replicon used in these studies was a transient genotype 1b subgenomic replicon generated from the Con1 strain. In this replicon, the HCV internal ribosome entry site (IRES) within the 5′ non-translated region (NTR) drives expression of the first 32 amino acids of the core protein fused to humanized Renilla luciferase (hRluc). The encephalomycarditis IRES lies 3′ to the hRluc open reading frame (ORF) and drives expression of non-structural (NS) proteins NS3 through NS5B. Huh7.5 cells (U.S. patent application Ser. No. 10/534,571) harboring this replicon were seeded into 96-well plates at 20,000 cells per well in medium containing 10% FBS, 1× penicillin/streptomycin, 1× non-essential amino acids, and 100 ng/ml Fungizone. After a four hour attachment period, compound was added to wells using a five point 3-fold serial dilution series with four replicate treatments per dose. […] Compound-mediated HCV inhibition and toxicity were assayed 24 hours post-treatment using Renilla luciferase readout and an ATP viability assay (CellTiter-Glo, Promega, Madison, Wis., USA), respectively. […]
structure (smiles),measurement,setting,value
"O=C(NCc1cccs1)c1nn2c(c1Cl)NC(c1ccco1)CC2C(F)(F)F (stereo not drawn) [Compound 89652, 3-chloro-5-(furan-2-yl)-N-(thiophen-2-ylmethyl)-7-(trifluoromethyl)-4,5,6,7-tetrahydropyrazolo[L5-a]pyrimidine-2-carboxamide]",potency in viral infectivity assays relative to HCV replicon assays,[1],significantly more potent
same,Log change in 3′NTR copies relative to 1.0% DMSO (GAPDH normalized),[1]; 0.02 μM,−0.15
same,Log change in 3′NTR copies relative to 1.0% DMSO (GAPDH normalized),[1]; 0.07 μM,−0.52
same,Log change in 3′NTR copies relative to 1.0% DMSO (GAPDH normalized),[1]; 0.22 μM,−0.85
same,Log change in 3′NTR copies relative to 1.0% DMSO (GAPDH normalized),[1]; 0.67 μM,−1.31
same,Log change in 3′NTR copies relative to 1.0% DMSO (GAPDH normalized),[1]; 2 μM,−1.47
same,chimeric APV112 viral infectivity,"[1]; FIG. 5, sensitive genotype 1b NS4B region",reduced
same,chimeric APV23 viral infectivity,[2],unaffected
same,CC50,Huh7.5 cells,> 100 µM
